Results reported in US10357481B2 (MERCK SHARP & DOHME CORP., priority 2015, dated 2019).

Molecular target: T1, human PDE2A1 (Homo sapiens, UniProt O00408)
T1 construct: GST; purchased BPS Bioscience (San Diego, Calif.) 60020; host or cells: insect cells
Assay: IMAP FP PDE selectivity panel, human PDE2A1
Type: biochemical
Conditions: Lab B; read-out: Human PDE2 Ki (nM) Lab B
Method in brief: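 IMAP FP read-out, run at room temperature in parallel with PDE1–11: enzyme at 20% substrate conversion, 50 nM FAM-cAMP containing 1000 nM cGMP, Tris pH 7.2/MgCl2/DTT buffer. Compounds as ten 3-fold dilutions. Reaction 60 min, stopped with binding reagent for 1 h before polarization measurement.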

T1 sequence (O00408 1-920 isoform O00408-2): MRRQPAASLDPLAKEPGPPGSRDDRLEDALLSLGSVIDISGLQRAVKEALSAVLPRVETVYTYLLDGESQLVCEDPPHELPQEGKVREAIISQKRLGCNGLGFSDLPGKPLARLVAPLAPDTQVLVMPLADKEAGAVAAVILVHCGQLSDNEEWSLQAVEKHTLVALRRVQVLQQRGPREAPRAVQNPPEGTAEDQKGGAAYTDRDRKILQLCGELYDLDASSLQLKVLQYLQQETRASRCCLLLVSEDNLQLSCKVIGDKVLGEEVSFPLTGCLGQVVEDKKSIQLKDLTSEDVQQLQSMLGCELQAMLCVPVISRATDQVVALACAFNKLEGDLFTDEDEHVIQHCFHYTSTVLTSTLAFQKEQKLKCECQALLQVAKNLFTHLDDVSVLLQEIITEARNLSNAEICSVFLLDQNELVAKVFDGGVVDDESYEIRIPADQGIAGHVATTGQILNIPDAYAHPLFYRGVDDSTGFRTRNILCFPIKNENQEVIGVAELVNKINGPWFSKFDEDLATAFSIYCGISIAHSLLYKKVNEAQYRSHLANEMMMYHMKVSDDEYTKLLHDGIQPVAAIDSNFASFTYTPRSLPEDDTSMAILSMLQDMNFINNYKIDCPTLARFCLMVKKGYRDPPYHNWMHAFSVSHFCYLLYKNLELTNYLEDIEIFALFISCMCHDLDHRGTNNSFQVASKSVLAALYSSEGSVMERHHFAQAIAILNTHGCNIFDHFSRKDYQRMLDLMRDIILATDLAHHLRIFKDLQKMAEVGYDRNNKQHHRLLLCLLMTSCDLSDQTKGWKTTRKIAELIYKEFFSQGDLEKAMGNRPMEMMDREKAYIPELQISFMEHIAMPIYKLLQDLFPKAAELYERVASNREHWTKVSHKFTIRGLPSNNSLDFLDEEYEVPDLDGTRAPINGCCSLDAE

Compound	Ki [nM]
CCOc1cc(N[C@@H](c2ccc(C(F)(F)F)c(F)c2)C(C)(C)C)n2ncnc2n1 [Example 234, (R)-5-Ethoxy-N-(1-(3-fluoro-4-(trifluoromethyl)phenyl)-2,2-dimethylpropyl)-[1,2,4]triazolo [1,5-a]pyrimidin-7-amine]	1230
Cc1cc(N[C@@H](c2ccc(C(F)(F)F)c(F)c2)C(C)(C)C)n2nc(C)nc2n1 [Example 202, (R)-N-(1-(3-Fluoro-4-(trifluoromethyl)phenyl)-2,2-dimethylpropyl)-2,5-dimethyl-[1,2,4]triazolo [1,5-a]pyrimidin-7-amine]	56
CC(C)(O)C(Nc1cc(C2CC2)nc2ncnn12)c1ccc(OC(F)(F)F)c(F)c1 (single isomer, unassigned) [Example 140, (1S or R)-1-[(5- Cyclopropyl [1,2,4]triazolo [1,5-a]pyrimidin-7-yl)amino]-1-[3-fluoro-4-(trifluoro-methoxy)phenyl]-2-methylpropan-2-ol]	> 2960
CC(C)(O)C(Nc1cc(C(F)(F)F)nc2ncnn12)c1ccc(OC(F)(F)F)c(F)c1 (single isomer, unassigned) [Example 175, (1S or R)-1-[3-Fluoro-4-(trifluoromethoxy)phenyl]-2-methyl-1-{[5-(trifluoromethyl) [1,2,4]triazolo [1,5-a]pyrimidin-7-yl]amino} propan-2-ol]	14
Cc1cc(N[C@@H](c2ccc(CC(F)(F)F)cc2)C(C)(C)C)n2ncnc2n1 [Example 35, N-{(1R)-2,2-Dimethyl-1-[4-(2,2,2-trifluoroethyl)phenyl]propyl}-5-methyl[1,2,4]triazolo[1,5-a] pyrimidin-7-amine]	7.8
CC(C)(O)[C@@H](Nc1cc(C(F)(F)F)cc2nc(N)nn12)c1ccc(C(F)(F)F)cc1 [Example 294, (S)-1-((2-Amino-7-(trifluoromethyl)-[1,2,4]triazolo[1,5-a]pyridin-5-yl)amino)-2-methyl-1-(4-(trifluoromethyl)phenyl)propan-2-ol]	678
Cc1cc(NC(c2ccc(OC(F)F)cc2)C(C)(C)O)n2ncnc2n1 (single isomer, unassigned) [Example 110, (1S or R)-1-[4-(Difluoro-methoxy)phenyl]-2-methyl-1-[(5-methyl[1,2,4]triazolo[1,5-a]pyrimidin-7-yl)amino]propan-2-ol]	> 2960
Cc1cc(N[C@@H](c2ccc(C3(C)CC3)cc2)C(C)C)n2ncnc2n1 [Example 24, 5-Methyl-N-{(1R)-2-methyl-1-[4-(1-methyl-cyclopropyl)phenyl]propyl} [1,2,4]triazolo[1,5-a]pyrimidin-7-amine]	26
CC(C)(O)C(Nc1cc(Cl)nc2ncnn12)c1ccc(C(F)(F)F)c(F)c1 (single isomer, unassigned) [Example 224, (S)- or (R)-1-(5-Chloro-[1,2,4]triazolo [1,5-a]pyrimidin-7-ylamino)-1-(3-fluoro-4-(trifluoromethyl)phenyl)-2-methylpropan-2-ol]	612
Cc1cc(OC2(c3ccc(C(F)(F)F)cc3)CC2)n2ncnc2n1 [Example 262, 5-Methyl-7-({1-[4-(trifluoromethyl)phenyl]cyclopropyl}oxy)[1,2,4]triazolo[1,5-a]pyrimidine]	137
Cc1cc(NC(c2ccc(C(F)(F)F)cc2Cl)C(C)(C)O)n2ncnc2n1 (single isomer, unassigned) [Example 105, (1R or S)-1-[2-Chloro-4-(trifluoromethyl)phenyl]-2-methyl-1-[(5-methyl[1,2,4]triazolo[1,5-a]pyrimidin-7-yl)amino]propan-2-ol]	38
Cc1cc(N[C@@H](c2ccc(C(F)(F)F)c(F)c2)C2(C)CC2)n2ncnc2n1 [Example 43, N-[(R)-[3-Fluoro-4-(trifluoromethyl)phenyl](1-methylcyclopropyl)methyl]-5-methyl[1,2,4]triazolo[1,5-a] pyrimidin-7-amine]	23
Cc1cc(N[C@@H](c2ccc(F)c(OC(F)(F)F)c2)C(C)(C)O)n2ncnc2n1 [Example 130, (1S)-1-[4-Fluoro-3-(trifluoro-methoxy)phenyl]-2-methyl-1-[(5-methyl[1,2,4]triazolo[1,5-a]pyrimidin-7-yl)amino]propan-2-ol]	2290
Cc1nc2ncnn2c(N[C@@H](C)c2ccc(C(F)(F)F)cc2)c1C [Example 86, 5,6-Dimethyl-N-{(1S)-1-[4-(trifluoromethyl)phenyl]ethyl}[1,2,4]triazolo[1,5-a]pyrimidin-7-amine]	~1750
Cc1cc(NC(c2ccc(OC(F)(F)F)cc2F)C(C)(C)O)n2nc(C)nc2n1 (single isomer, unassigned) [Example 134, (1S or R)-1-[(2,5-Dimethyl[1,2,4]triazolo[1,5-a]pyrimidin-7-yl)amino]-1-[2-fluoro-4-(tri-fluoromethoxy)phenyl]-2-methylpropan-2-ol]	> 2960
Cc1cc(N[C@@H](c2ccc(S(F)(F)(F)(F)F)cc2)C2CC2)n2ncnc2n1 [Example 37, N-{(1R)-Cyclopropyl[4-(pentafluoro-λ^6-sulfanyl)phenyl]methyl}-5-methyl[1,2,4]triazolo[1,5-a] pyrimidin-7-amine]	22
Cc1cc(N(C)C2(c3ccc(C(F)(F)F)c(F)c3)CC2)n2ncnc2n1 [Example 246]	46

Compound	Ki [nM]
Cc1cc(NC(CO)c2ccc(C(F)(F)F)cc2)n2ncnc2n1 (stereo not drawn) [Example 88, 2-[(5-Methyl[1,2,4]triazolo[1,5-a]pyrimidin-7-yl)amino]-2-[4-(trifluoromethyl)phenyl]ethanol]	736
Cc1cc(NC(c2ccc(OC(F)(F)F)c(F)c2)C2COC2)n2ncnc2n1 (single isomer, unassigned) [Example 229, (R)- or (S)-N-((3-Fluoro-4-(trifluoromethoxy)phenyl)(oxetan-3-yl)methyl)-5-methyl-[1,2,4]triazolo [1,5-a]pyrimidin-7-amine]	448
Cc1cc(NC2(c3ccc(C(F)(F)F)cc3)COC2)n2ncnc2n1 [Example 199, 5-Methyl-N-(3-(4-(trifluoromethyl)phenyl)oxetan-3-yl)-[1,2,4]triazolo [1,5-a]pyrimidin-7-amine]	167
CC(C)c1cc(NC(c2ccc(OC(F)(F)F)c(F)c2)C(C)(C)O)n2ncnc2n1 (single isomer, unassigned) [Example 138, (1S or R)-1-[3-Fluoro-4-(trifluoro-methoxy)phenyl]-2-methyl-1-{[5-(1-methylethyl) [1,2,4]triazolo [1,5-a]pyrimidin-7-yl]amino} propan-2-ol]	~1570
Cc1cc(N[C@@H](c2ccc(C(F)(F)F)cc2F)C(C)(C)C)n2ncnc2n1 [Example 34, N-{(1R)-1-[2-Fluoro-4-(trifluoromethyl)phenyl]-2,2-dimethylpropyl}-5-methyl[1,2,4]triazolo[1,5-a] pyrimidin-7-amine]	15
COc1cc(N[C@@H](c2ccc(C(F)(F)F)c(F)c2)C(C)(C)O)n2ncnc2n1 (single isomer, unassigned) [Example 237]	1690
CC(C)(O)[C@@H](Nc1cc(C(F)(F)F)cc2ncnn12)c1ccc(OC(F)(F)F)cc1F [Example 278, (1S)-1-[2-Fluoro-4-(trifluoromethoxy)phenyl]-2-methyl-1-{[7-(trifluoromethyl) [1,2,4]triazolo[1,5α]pyridin-5-yl]amino}propan-2-ol]	92
Cc1cc(O[C@H](c2ccc(C(F)(F)F)cc2)C(C)(C)C)n2ncnc2n1 (single isomer, unassigned) [Example 261]	> 2960
Cc1cc(NC2(c3ccc(C(F)(F)F)cc3)CCC2)n2ncnc2n1 [Example 64, 5-Methyl-N-{1-[4-(trifluoromethyl)phenyl]cyclobutyl}[1,2,4]triazolo [1,5-a]pyrimidin-7-amine]	77
Cc1cc(N(C)C(c2ccc(OC(F)(F)F)c(F)c2)C(C)(C)O)n2ncnc2n1 (single isomer, unassigned) [Example 247, (R)- or (S)-1-(3-Fluoro-4-(trifluoromethoxy)phenyl)-2-methyl-1-(methyl(5-methyl-[1,2,4]triazolo [1,5-a]pyrimidine-7-yl)amino)propan-2-ol]	24
CC[C@@H](Nc1cc(C)nc2ncnn12)c1ccc(SC(F)(F)F)cc1 [Example 17, 5-Methyl-N-[(1R)-1-{4-[(trifluoromethyl)sulfanyl]phenyl}propyl][1,2,4]triazolo[1,5-a] pyrimidin-7-amine]	15
Cc1cc(NC2(c3cccc(C(F)(F)F)c3F)COC2)n2ncnc2n1 [Example 200, N-(3-(2-Fluoro-3-(trifluoromethyl)phenyl)oxetan-3-yl)-5-methyl-[1,2,4]triazolo [1,5-a]pyrimidin-7-amine]	> 2960
CC1(c2ccc(C(Nc3cc(C(F)(F)F)nc4ncnn34)C(C)(C)O)cc2)CC1 (single isomer, unassigned) [Example 180, (1R or S)-2-Methyl-1-[4-(1-methylcyclopropyl)phenyl]-1-{[5-(trifluoromethyl) [1,2,4]triazolo [1,5-a]pyrimidin-7-yl]amino} propan-2-ol]	12
Cc1cc(N[C@H](c2ccc(OC(F)(F)F)c(Cl)c2)C(C)(C)O)n2ncnc2n1 [Example 103, (1R)-1-[3-Chloro-4-(trifluoromethoxy)phenyl]-2-methyl-1-[(5-methyl[1,2,4]triazolo[1,5-a]pyrimidin-7-yl)amino]propan-2-ol]	34
Cc1cc(NC(c2ccc3c(c2)OC(F)(F)O3)C(C)(C)O)n2ncnc2n1 (single isomer, unassigned) [Example 112, (1S or R)-1-(2,2-Difluoro-1,3-benzodioxol-5-yl)-2-methyl-1-[(5-methyl[1,2,4]triazolo[1,5-a]pyrimidin-7-yl)amino]propan-2-ol]	> 2960
Cc1cc(NC(c2ccc(OC(F)(F)F)cc2C)C(C)(C)O)n2ncnc2n1 (single isomer, unassigned) [Example 128, (1S or R)-2-Methyl-1-[(5-methyl[1,2,4]triazolo[1,5-a]pyrimidin-7-yl)amino]-1-[2-methyl-4-(trifluoromethoxy)phenyl]propan-2-ol]	> 2960
